This note sets out measurements from patent US5008419A, “Novel platinum complex” (SS Pharmaceutical Co., Ltd., priority 1988, dated 1991).

One series concerns L1210 leukemia cells. The experiment in a line: Antitumor activity against L1210 leukemia in CDF1 mice (increase life span, survived ratio). The following applies: for ILS (increase life span) / Survived ratio: i.p., once a day for 5 days; for Survived ratio: 30 days observation; for ILS50 (50% increase life span dose): mouse, in vivo, ip, 43200 min. Format: in vivo, CDF1 male mice. The procedure: CDF1 male mice (age: 6 weeks) consisting of 6 per each group were used to the test. 1×10^5 L1210 leukemia cells were intraperitoneally inoculated into each mouse. Test compounds dissolved in a solution of 0.5% CMC-Na in physiological saline were intraperitoneally administered to mice once a day for 5 consecutive days from the next day of the inoculation. A 0.5% CMC-Na solution in physiological saline was administered to the control group. […] All of these compounds are known compounds and Comparative Compounds a-c were disclosed in U.S. Pat. No. 4,169,846.
Observation was continued for consecutive 30 days after the administration. Increase life span (ILS) was determined according to the following equation: […]
wherein T is the mean survival days of the treated groups, and C is the mean survival days of the control groups.
(§1) Therapeutic index of compounds of this invention was determined according to the following equation. [formula]

The nature of another series: 50% lethal dose (LD50). The following applies: in vivo. Here is the method: as §1
A further series can be described thus: Water solubility. The class given is physicochemical.

As to “(trans-dl-1,2-diaminocyclohexane)-malonatoplatinum (II) [Comparative Compound a]”, the “ILS (increase life span)” value is 35% with L1210 leukemia cells (4.0 mg/kg); 49% with L1210 leukemia cells (8.0 mg/kg); 82% with L1210 leukemia cells (16.0 mg/kg); 94% in the series on L1210 leukemia cells (32.0 mg/kg); “above 108%” with L1210 leukemia cells (64.0 mg/kg). Moreover, the Survived ratio with L1210 leukemia cells (4.0 mg/kg) is listed as 0%; with L1210 leukemia cells (8.0 mg/kg) it was 0%; in the series with L1210 leukemia cells (16.0 mg/kg) it was 0%; in the series on L1210 leukemia cells (32.0 mg/kg), 17%; in the series on L1210 leukemia cells (64.0 mg/kg), 17%. For the same molecule, in the series with L1210 leukemia cells, the “ILS50 (50% increase life span dose)” value was found to be 7.1 mg/kg. In the series “50% lethal dose (LD50)”, the “LD50 (50% lethal dose)” value was determined as 244.9 mg/kg. The same molecule displayed a Water solubility in the series “Water solubility” of 500 µg/mL.
Regarding `N.N.[Cl][Pt][Cl]` [Cisplatin], the “ILS (increase life span)” value was 19% in the series with L1210 leukemia cells (0.5 mg/kg), 33% in the series with L1210 leukemia cells (1.0 mg/kg), 75% in the series with L1210 leukemia cells (2.0 mg/kg) and 88% in the series on L1210 leukemia cells (4.0 mg/kg). Also, the “ILS50 (50% increase life span dose)” value in the series with L1210 leukemia cells was found to be 1.3 mg/kg.
On to `N.N.O=C([O-])C1(C(=O)[O-])CCC1.[Pt+2]` [Carboplatin], for which the “ILS (increase life span)” value in the series on L1210 leukemia cells (8.0 mg/kg) is 27%; with L1210 leukemia cells (16.0 mg/kg), 29%; in the series on L1210 leukemia cells (32.0 mg/kg), 43%; with L1210 leukemia cells (64.0 mg/kg), 70%; with L1210 leukemia cells (128.0 mg/kg) it was 25%. Further, the Survived ratio in the series on L1210 leukemia cells (8.0 mg/kg), with L1210 leukemia cells (16.0 mg/kg), with L1210 leukemia cells (32.0 mg/kg), with L1210 leukemia cells (64.0 mg/kg) and with L1210 leukemia cells (128.0 mg/kg) was 0% each time. The “ILS50 (50% increase life span dose)” value with L1210 leukemia cells was 31.2 mg/kg. The “LD50 (50% lethal dose)” value in the series “50% lethal dose (LD50)” is given as 200.0 mg/kg.
Take `CCC1C(=O)[O][Pt]2([NH]C3CCCCC3[NH]2)[O]C1=O` (racemic) [Comparative Compound c, (trans-dl-1,2-diaminocyclohexane)ethylmalonatoplatinum (II)]: the “ILS (increase life span)” value is reported as 27% in the series on L1210 leukemia cells (4.0 mg/kg), 31% in the series on L1210 leukemia cells (8.0 mg/kg), 52% in the series with L1210 leukemia cells (16.0 mg/kg) and 69% in the series with L1210 leukemia cells (32.0 mg/kg). Also, the “ILS50 (50% increase life span dose)” value in the series with L1210 leukemia cells was found to be 14.2 mg/kg. The “LD50 (50% lethal dose)” value in the series “50% lethal dose (LD50)” is 244.9 mg/kg.
With `CC1C(=O)[O][Pt]2([NH]C3CCCCC3[NH]2)[O]C1=O` (racemic) [Comparative Compound b, (trans-dl-1,2-diaminocyclohexane)methylmalonatoplatinum (II)], the “ILS (increase life span)” value is recorded as 17% in the series with L1210 leukemia cells (4.0 mg/kg), 27% with L1210 leukemia cells (8.0 mg/kg), 43% with L1210 leukemia cells (16.0 mg/kg) and 79% in the series on L1210 leukemia cells (32.0 mg/kg). In addition, the “ILS50 (50% increase life span dose)” value in the series on L1210 leukemia cells turned out to be 14.9 mg/kg. Also, the “LD50 (50% lethal dose)” value in “50% lethal dose (LD50)” came to 312.6 mg/kg.
On to “(trans-dl-1,2-diaminocyclohexane) dimethylmalonatoplatinum (II) [Compound No. 1]”, for which the “ILS (increase life span)” value in the series on L1210 leukemia cells (2.0 mg/kg) is listed as 40%; in the series with L1210 leukemia cells (4.0 mg/kg), 49%; with L1210 leukemia cells (8.0 mg/kg), “above 136%”; with L1210 leukemia cells (16.0 mg/kg), 112%; in the series on L1210 leukemia cells (32.0 mg/kg) it was 130%. The Survived ratio turned out to be 0% with L1210 leukemia cells (2.0 mg/kg); 0% with L1210 leukemia cells (4.0 mg/kg); 17% in the series on L1210 leukemia cells (8.0 mg/kg); 0% with L1210 leukemia cells (16.0 mg/kg); 0% in the series on L1210 leukemia cells (32.0 mg/kg). Also, the “ILS50 (50% increase life span dose)” value in the series with L1210 leukemia cells is reported as 3.4 mg/kg. Moreover, the “LD50 (50% lethal dose)” value in the series “50% lethal dose (LD50)” is listed as 140.0 mg/kg. Also, the Water solubility in the series “Water solubility” is 8000 µg/mL.
As for “(trans-dl-1,2-diaminocyclohexane) diethylmalonatoplatinum (II) [Compound No. 2]”, the “ILS (increase life span)” value in the series on L1210 leukemia cells (2.0 mg/kg) is listed as 43%; with L1210 leukemia cells (4.0 mg/kg), 61%; with L1210 leukemia cells (8.0 mg/kg) it was “above 135%”; with L1210 leukemia cells (16.0 mg/kg) it was “above 124%”; in the series on L1210 leukemia cells (32.0 mg/kg), “above 168%”. Besides, the Survived ratio with L1210 leukemia cells (2.0 mg/kg) is on record as 0%; in the series on L1210 leukemia cells (4.0 mg/kg), 0%; in the series on L1210 leukemia cells (8.0 mg/kg) it was 33%; with L1210 leukemia cells (16.0 mg/kg), 17%; in the series with L1210 leukemia cells (32.0 mg/kg) it was 33%. For the same molecule, in the series on L1210 leukemia cells, the “ILS50 (50% increase life span dose)” value is reported as 2.7 mg/kg. Moreover, the “LD50 (50% lethal dose)” value in “50% lethal dose (LD50)” is 140.0 mg/kg. This molecule also came in with a Water solubility in “Water solubility” of 10000 µg/mL.
